In brackets after ≈: the same amount, converted by molar mass. Where a name gives a salt, the structure may show the parent alone. Read-outs that look alike come from different tables or passages of the source.
What was measured:
[1] = in vivo; conditions: rat, blood, 50 mg/kg in 5% gum arabic, male wister rats, bioassay
Protocol: Three male wister rats (7 weeks old) for each group were administered orally with the test compounds, and the change of the concentration of the compound in blood was measured.
Dosage of the test compound:
50 mg/kg (suspended in 5% gum arabic)
Quantitative method: Bioasssay
(test bacterium: Escherichia coil SC507)

[2] = test system: Staphylococcus aureus 209P-JC; test: Minimum inhibitory concentration, agar plate dilution method; format: cell-based; conditions: read-out: Minimum Inhibitory Concentration
Protocol: (§1) The antibacterial activity against various bacteria was measured by the agar plate dilution method (inoculum size 10^6 cells/ml), and the results are shown in the following Table 1.

[3] = test system: Staphylococcus aureus K-1; test: as above; format: cell-based
Protocol: as §1

[4] = test system: Escherichia coli NIJH JC-2; test: as above; format: cell-based
Protocol: as §1

[5] = test system: Morganella morganii IID 602; test: as above; format: cell-based
Protocol: as §1

[6] = test system: Klebsiella pneumoniae T-25; test: as above; format: cell-based
Protocol: as §1

[7] = test system: Escherichia coli A13; test: as above; format: cell-based
Protocol: as §1

[8] = Staphylococcus aureus, K1, read-out: Minimum Inhibitory Concentration
[9] = Escherichia coli, NIJHJC2, read-out: Minimum Inhibitory Concentration
[10] = Morganella morganii, IID602, read-out: Minimum Inhibitory Concentration
[11] = Klebsiella pneumoniae, T25, read-out: Minimum Inhibitory Concentration
[12] = Escherichia coli, A13, read-out: Minimum Inhibitory Concentration
[13] = Staphylococcus aureus 209P-JC, inoculum size 10^6 cells/ml
[14] = NIJHJC2, Escherichia coli NIJH JC-2, inoculum size 10^6 cells/ml, read-out: Minimum Inhibitory Concentration
[15] = IID602, Morganella morganii IID 602, inoculum size 10^6 cells/ml, read-out: Minimum Inhibitory Concentration
[16] = T25, Klebsiella pneumoniae T-25, inoculum size 10^6 cells/ml, read-out: Minimum Inhibitory Concentration
[17] = Escherichia coli A13, inoculum size 10^6 cells/ml, read-out: Minimum Inhibitory Concentration

| SMILES | concentration at 4 h ([1]; Four Hours after oral administration) | concentration at 1 h ([1]; One Hour after oral administration) | concentration at 2 h ([1]; Two Hours after oral administration) | MIC ([2]; Staphylococcus aureus, 209P) | MIC [3, 8] | MIC [4, 9] | MIC [5, 10] | MIC [6, 11] | MIC [7, 12] | MIC [2, 13] | MIC ([3]; K1, Staphylococcus aureus K-1, inoculum size 10^6 cells/ml, read-out: Minimum Inhibitory Concentration) | MIC [4, 14] | MIC [5, 15] | MIC [6, 16] | MIC [7, 17] |
| --- | --- | --- | --- | --- | --- | --- | --- | --- | --- | --- | --- | --- | --- | --- | --- |
| COC(=O)/C=C\SC1=C(C(=O)[O-])N2C(=O)[C@@H](NC(=O)/C(=N\O)c3csc(N)n3)[C@H]2SC1.[Na+] | 16900 ng/mL | 11000 ng/mL | 14200 ng/mL | 0.2 µg/mL | 3.13 µg/mL | ≤ 0.025 µg/mL | 0.05 µg/mL | 0.2 µg/mL | 6.25 µg/mL |  |  |  |  |  |  |
| CC1=C(C(=O)O)N2C(=O)[C@@H](NC(=O)[C@H](N)c3ccccc3)[C@H]2SC1 [Test compound B, Cephalexin] |  |  |  | 0.78 µg/mL (≈ 2.25 µM) | > 100 µg/mL | 3.13 µg/mL (≈ 9.01 µM) | > 100 µg/mL | 100 µg/mL (≈ 288 µM) | > 100 µg/mL |  |  |  |  |  |  |
| C=CC1=C(C(=O)O)N2C(=O)[C@@H](NC(=O)/C(=N\OCC(=O)O)c3csc(N)n3)[C@H]2SC1 [Test compound C, Cefixime sodium salt] |  |  |  |  |  |  |  |  |  | 12.5 µg/mL | > 100 µg/mL | 0.05 µg/mL | 0.39 µg/mL | 12.5 µg/mL | > 100 µg/mL |
| COC(=O)/C=C\SC1=C(C(=O)O)N2C(=O)[C@@H](NC(=O)/C(=N\OCC(=O)O)c3csc(N)n3)[C@H]2SC1 [Test compound D] |  |  |  |  |  |  |  |  |  | 6.25 µg/mL (≈ 11.5 µM) |  | 0.05 µg/mL (≈ 0.092 µM) | 0.25 µg/mL (≈ 0.46 µM) | 0.39 µg/mL (≈ 0.717 µM) | > 100 µg/mL |
